# Where a name gives a salt, the structure may show the parent alone.
# Experiments:
# Test in all cases: normalized area under the dose-response curve (viability relative to DMSO control) (fraction); higher = less sensitive (more viable cells)
# Conditions in all cases: exposure time not given
# AMO1 (cancer type: MM) = tested on: AMO1 (cancer type: MM)
# Experimental: (§1)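 25 myeloma and 15 non-Hodgkin lymphoma cell lines were exposed to each of 76 drugs as 7-point log dilutions (0.01 nM–10 µM) in duplicate. Viability was read with CellTiter-Glo and normalised to DMSO (0.1%) and staurosporine (10 µM) plate controls. Normalised AUC was calculated by the trapezoidal method relative to the negative control.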
# EJM (cancer type: MM) = tested on: EJM (cancer type: MM)
# Experimental: as §1
# FR4 (cancer type: MM) = tested on: FR4 (cancer type: MM)
# Experimental: as §1
# [1] = tested on: Granta-519 (cancer type: Mantle)
# Experimental: as §1
# [2] = tested on: HuT 78 (cancer type: TCL)
# Experimental: as §1
# JJN3 (cancer type: MM) = tested on: JJN3 (cancer type: MM)
# Experimental: as §1
# [3] = tested on: JVM2 (cancer type: Mantle)
# Experimental: as §1
# [4] = tested on: JeKo-1 (cancer type: Mantle)
# Experimental: as §1
# KMS11 (cancer type: MM) = tested on: KMS11 (cancer type: MM)
# Experimental: as §1
# [5] = tested on: KMS12PE (cancer type: MM)
# Experimental: as §1
# KMS18 (cancer type: MM) = tested on: KMS18 (cancer type: MM)
# Experimental: as §1
# KMS26 (cancer type: MM) = tested on: KMS26 (cancer type: MM)
# Experimental: as §1
# [6] = tested on: KMS28BM (cancer type: MM)
# Experimental: as §1
# [7] = tested on: KMS28PE (cancer type: MM)
# Experimental: as §1
# KMS34 (cancer type: MM) = tested on: KMS34 (cancer type: MM)
# Experimental: as §1
# [8] = tested on: Karpas-299 (cancer type: TCL)
# Experimental: as §1
# L363 (cancer type: MM) = tested on: L363 (cancer type: MM)
# Experimental: as §1
# LP1 (cancer type: MM) = tested on: LP1 (cancer type: MM)
# Experimental: as §1
# MM1.R (cancer type: MM) = tested on: MM1.R (cancer type: MM)
# Experimental: as §1
# MM1.S (cancer type: MM) = tested on: MM1.S (cancer type: MM)
# Experimental: as §1
# [9] = tested on: Mino (cancer type: Mantle)
# Experimental: as §1
# My-La (cancer type: TCL) = tested on: My-La (cancer type: TCL)
# Experimental: as §1
# [10] = tested on: NCI-H929 (cancer type: MM)
# Experimental: as §1
# [11] = tested on: OCI-LY1 (cancer type: DLBCL)
# Experimental: as §1
# [12] = tested on: OCI-LY19 (cancer type: DLBCL)
# Experimental: as §1
# [13] = tested on: OCI-LY3 (cancer type: DLBCL)
# Experimental: as §1
# [14] = tested on: OCI-MY5 (cancer type: MM)
# Experimental: as §1
# [15] = tested on: OCI-MY5/CRBN (cancer type: MM)
# Experimental: as §1
# [16] = tested on: OCI-MY5/Vec (cancer type: MM)
# Experimental: as §1
# [17] = tested on: OCI-MY7 (cancer type: MM)
# Experimental: as §1
# OPM2 (cancer type: MM) = tested on: OPM2 (cancer type: MM)
# Experimental: as §1
# [18] = tested on: RPMI 8226 (cancer type: MM)
# Experimental: as §1
# SKMM2 (cancer type: MM) = tested on: SKMM2 (cancer type: MM)
# Experimental: as §1
# [19] = tested on: SR-786 (cancer type: TCL)
# Experimental: as §1
# [20] = tested on: SU-DHL1 (cancer type: TCL)
# Experimental: as §1
# [21] = tested on: SU-DHL2 (cancer type: DLBCL)
# Experimental: as §1
# [22] = tested on: SU-DHL6 (cancer type: DLBCL)
# Experimental: as §1
# Se-Ax (cancer type: TCL) = tested on: Se-Ax (cancer type: TCL)
# Experimental: as §1
# U266 (cancer type: MM) = tested on: U266 (cancer type: MM)
# Experimental: as §1
# XG2 (cancer type: MM) = tested on: XG2 (cancer type: MM)
# Experimental: as §1
SMILES,normalized area under the dose-response curve (AMO1 (cancer type: MM)),normalized area under the dose-response curve (EJM (cancer type: MM)),normalized area under the dose-response curve (FR4 (cancer type: MM)),normalized area under the dose-response curve [1],normalized area under the dose-response curve [2],normalized area under the dose-response curve (JJN3 (cancer type: MM)),normalized area under the dose-response curve [3],normalized area under the dose-response curve [4],normalized area under the dose-response curve (KMS11 (cancer type: MM)),normalized area under the dose-response curve [5],normalized area under the dose-response curve (KMS18 (cancer type: MM)),normalized area under the dose-response curve (KMS26 (cancer type: MM)),normalized area under the dose-response curve [6],normalized area under the dose-response curve [7],normalized area under the dose-response curve (KMS34 (cancer type: MM)),normalized area under the dose-response curve [8],normalized area under the dose-response curve (L363 (cancer type: MM)),normalized area under the dose-response curve (LP1 (cancer type: MM)),normalized area under the dose-response curve (MM1.R (cancer type: MM)),normalized area under the dose-response curve (MM1.S (cancer type: MM)),normalized area under the dose-response curve [9],normalized area under the dose-response curve (My-La (cancer type: TCL)),normalized area under the dose-response curve [10],normalized area under the dose-response curve [11],normalized area under the dose-response curve [12],normalized area under the dose-response curve [13],normalized area under the dose-response curve [14],normalized area under the dose-response curve [15],normalized area under the dose-response curve [16],normalized area under the dose-response curve [17],normalized area under the dose-response curve (OPM2 (cancer type: MM)),normalized area under the dose-response curve [18],normalized area under the dose-response curve (SKMM2 (cancer type: MM)),normalized area under the dose-response curve [19],normalized area under the dose-response curve [20],normalized area under the dose-response curve [21],normalized area under the dose-response curve [22],normalized area under the dose-response curve (Se-Ax (cancer type: TCL)),normalized area under the dose-response curve (U266 (cancer type: MM)),normalized area under the dose-response curve (XG2 (cancer type: MM))
Cc1[nH]c2ccccc2c1CCNCc1ccc(/C=C/C(=O)NO)cc1 [Panobinostat],0.444,0.188,0.594,0.424,0.249,0.56,0.347,0.284,0.659,0.42,0.618,0.454,0.567,0.52,0.333,0.187,0.613,0.592,0.35,0.25,0.303,0.422,0.16,0.167,0.36,0.322,0.297,0.13,0.173,0.47,0.812,0.682,0.698,0.374,0.23,0.286,0.501,0.244,0.389,0.483
Cc1ccc(Nc2nccc(N(C)c3ccc4c(C)n(C)nc4c3)n2)cc1S(N)(=O)=O [Pazopanib hydrochloride],0.798,0.861,0.759,0.899,0.795,0.628,0.721,0.881,0.713,0.82,0.732,0.848,0.921,0.796,0.347,0.829,0.666,0.602,0.77,0.79,0.939,0.879,0.77,0.906,0.859,1,0.667,0.855,0.764,0.78,0.653,0.827,0.86,0.789,0.833,0.931,0.99,0.732,0.681,0.876
Nc1cccc2c1C(=O)N(C1CCC(=O)NC1=O)C2=O (stereo not given) [Pomalidomide],0.879,0.879,0.949,0.87,0.986,0.994,0.889,0.843,0.912,0.9,0.886,0.86,0.925,0.962,0.917,0.914,0.887,0.871,0.76,0.74,0.884,0.875,0.78,0.964,0.854,0.979,0.9,0.908,0.897,0.9,0.963,0.959,0.973,0.947,0.846,0.917,0.989,0.767,0.96,0.77
Cc1ccc(C(=O)Nc2ccc(CN3CCN(C)CC3)c(C(F)(F)F)c2)cc1C#Cc1cnc2cccnn12 [Ponatinib],0.431,0.427,0.451,0.755,0.527,0.344,0.44,0.52,0.458,0.48,0.479,0.593,0.551,0.501,0.298,0.719,0.461,0.408,0.5,0.57,0.501,0.615,0.52,0.678,0.726,0.859,0.361,0.665,0.613,0.48,0.419,0.237,0.55,0.673,0.239,0.797,0.79,0.417,0.381,0.454
CC(C)(C)c1cc(NC(=O)Nc2ccc(-c3cn4c(n3)sc3cc(OCCN5CCOCC5)ccc34)cc2)no1 [Quizartinib],0.837,0.861,0.923,0.941,0.865,0.631,0.764,0.98,0.828,0.87,0.737,0.934,0.838,0.898,0.439,0.93,0.751,0.766,0.69,0.82,0.863,0.917,0.88,0.987,0.923,0.959,0.65,0.917,0.894,0.91,0.531,0.955,0.973,0.869,0.686,0.956,0.907,0.825,0.867,0.763
O=C(c1ccc(OCCN2CCCCC2)cc1)c1c(-c2ccc(O)cc2)sc2cc(O)ccc12 [Raloxifene],0.704,0.859,0.896,0.939,0.786,0.821,0.884,0.939,0.866,0.91,0.848,0.869,0.889,0.849,0.657,0.945,0.829,0.731,0.89,0.85,1.01,0.974,0.91,0.932,0.914,0.945,0.744,0.857,0.787,0.92,0.865,0.86,0.953,0.78,0.677,0.919,0.856,0.854,0.814,0.746
CNC(=O)c1cc(Oc2ccc(NC(=O)Nc3ccc(Cl)c(C(F)(F)F)c3)c(F)c2)ccn1 [Regorafenib],0.549,0.589,0.642,0.901,0.697,0.436,0.715,0.879,0.546,0.62,0.553,0.844,0.565,0.695,0.35,0.892,0.54,0.558,0.53,0.52,0.899,0.84,0.56,1,0.96,0.964,0.468,0.927,0.848,0.58,0.594,0.543,0.636,0.91,0.57,0.955,0.916,0.684,0.48,0.481
C/C=C1\NC(=O)[C@H]2CSSCC/C=C/[C@H](CC(=O)N[C@H](C(C)C)C(=O)N2)OC(=O)[C@H](C(C)C)NC1=O [Romidepsin],0.224,0.105,0.152,0.209,0.0814,0.324,0.148,0.174,0.382,0.24,0.291,0.257,0.271,0.262,0.206,0.118,0.401,0.447,0.33,0.23,0.178,0.109,0.09,0.118,0.198,0.203,0.13,0.0857,0.143,0.5,0.445,0.433,0.511,0.148,0.113,0.188,0.385,0.107,0.21,0.15
